According to patent US6894074B2, “Synergistic insecticidal mixtures” (Bayer Aktiengesellschaft, priority 1999, dated 2005):

Key:
Type in all cases: in vivo
[1] = system: white fly Bemisia tabaci; assay: Bemisia test: infested cotton plants dipped into preparation of active compound, kill in %; settings: 4 ppm active compound
Source text: The expected activity for a given combinatin of two active compounds can be calculated as follows (according to S. R. Colby, Weeds 15 (1967), 20-22):
If the actual activity exceeds the calculated value, then the activity of the combination is superadditive, i.e. a synergistic effect exists. In this case, the efficacy which was actually observed must be greater than the value for the expected efficacy (E) calculated from the abovementioned formula.
To produce a suitable preparation of active compound, 1 part by weight of active compound is mixed with the stated amounts of solvent and emulsifier, and the concentrate is diluted with water to the desired concentrations.
Cotton plants (Gossypium hirsutum) which are infested by eggs, larvae and puparia of the white fly Bemisia tabaci are dipped into a preparation of active compound of the desired concentration.
After the desired period of time, the kill in % is determined. 100% means that all animals have been killed; 0% means that none of the animals have been killed.

[2] = system: Aphis gossypii; assay: Field spray test against Aphis gossypii on courgettes, efficacy by the method of Abbott; settings: 4 spray applications
Method: The spray liquor (1000 l of water/ha) comprising the active compound(s) was applied using a knapsack sprayer operated with compressed air. 4 spray applications were carried out at intervals of 9-13 days. The plot size was 12 m^2. The effect on the aphids was determined 7, 16 and 29 days after the last application (start of the infestation after the 2nd treatment) by counting the animals which were still alive/leaf (10 leaves/plot) and calculating the efficacy by the method of Abbott.

[3] = system: Bemisia tabaci; assay: Field spray test against Bemisia tabaci on cotton, efficacy by the method of Abbott; settings: larvae on cotton
Method: The spray liquor (1000 l of water/ha) comprising the active compound(s) was applied using a knapsack sprayer operated by pressurized air. The plot size was 19 m^2. The effect was evaluated 7, 10 and 14 days after the application by determining the number of larvae still alive on the leaf undersurface (10 leaves/plot) and calculating the efficacy by the method of Abbott.

| Compound | Kill in % after 10 d [1] [%] | Efficacy % Abbott ([2]; 0.015 % active compound, 7 days after the last treatment) [%] | Efficacy % Abbott ([2]; 0.015 % active compound, 16 days after the last treatment) [%] | Efficacy % Abbott ([2]; 0.015 % active compound, 29 days after the last treatment) [%] | Efficacy % Abbott ([2]; 0.0144 % active compound, 7 days after the last treatment) [%] | Efficacy % Abbott ([2]; 0.0144 % active compound, 16 days after the last treatment) [%] | Efficacy % Abbott ([2]; 0.0144 % active compound, 29 days after the last treatment) [%] | Efficacy % Abbott ([3]; 0.0096 kg of active compound/ha, 7 days after treatment) [%] | Efficacy % Abbott ([3]; 0.0096 kg of active compound/ha, 10 days after treatment) [%] | Efficacy % Abbott ([3]; 0.0096 kg of active compound/ha, 14 days after treatment) [%] | Efficacy % Abbott ([3]; 0.096 kg of active compound/ha, 7 days after treatment) [%] | Efficacy % Abbott ([3]; 0.096 kg of active compound/ha, 10 days after treatment) [%] | Efficacy % Abbott ([3]; 0.096 kg of active compound/ha, 14 days after treatment) [%] |
| --- | --- | --- | --- | --- | --- | --- | --- | --- | --- | --- | --- | --- | --- |
| O=[N+]([O-])/N=C1\NCCN1Cc1ccc(Cl)nc1 [Ex. (IIa)] | 0 | 100 | 89 | 33 |  |  |  |  |  |  |  |  |  |
| Cc1cc(C)c(C2=C(OC(=O)CC(C)(C)C)C3(CCCC3)OC2=O)c(C)c1 [Ex. (Ia)] | 0 |  |  |  | 0 | 0 | 0 | 49 | 87 | 78 |  |  |  |
| N#C/N=C1\SCCN1Cc1ccc(Cl)nc1 [IIk] |  |  |  |  |  |  |  |  |  |  | 86 | 61 | 68 |
